Earlier results as cited in patent US20220305008A1, “TREATMENT OF CANCER HAVING GNAQ OR GNA11 GENETIC MUTATIONS WITH PROTEIN KINASE C INHIBITORS” (IDEAYA BIOSCIENCES, INC., priority 2019, published 2022).

Tests used:
[1] = in vivo, po
[2] = test system: metastatic uveal melanoma (MUM); settings: patients with MUM (metastatic uveal melanoma)

CC1(N)CCN(c2cccnc2NC(=O)c2nc(-c3ncccc3C(F)(F)F)cnc2N)CC1 [IDE196]
safety and tolerability of dose [1]: safe and tolerable | anti-tumor activity [2]: preliminary anti-tumor activity
